As a reminder, the IC50 is the concentration that gives 50% inhibition. Low values mean greater potency in that assay, high ones weaker potency in that assay.

The assay concerns the target T1, 20S Human Erythrocyte Proteasome (HEP) (Homo sapiens, UniProt P20618+P28074).
T1 construct: 20S Human Erythrocyte Proteasome (HEP), purchased from Immatics Biotechnologies Inc; purchased Immatics Biotechnologies Inc., Tübingen, Germany; host or cells: human erythrocytes (natural source)
Briefly: Chymotrypsin-like activity of 20S Human Erythrocyte Proteasome (HEP), IC50 determination. In kind it is biochemical. Particulars: assay of Example C, inhibition of HEP. The protocol:
Assay for Chymotrypsin-like Activity of 20S Human Erythrocyte Proteasome (HEP)
Proteasome chymotrypsin-like activity of compounds of the invention was assayed according to the following procedure.
In 96-well microtiter plates, 20S Human Erythrocyte Proteasome (HEP), purchased from Immatics Biotechnologies Inc., Tübingen, Germany was plated at 0.2 μg/mL (about 0.6 nM catalytic sites) in 0.04% SDS 20 mM Tris buffer. A fluorimetric substrate Suc-LLVY-AMC (succinyl-Leu-Leu-Val-Tyr-7-amido-4-methylcoumarin), purchased from Sigma Inc., St. Louis, Mo., USA was added to a final concentration of 100 μM from a stock solution of 10 mM in dimethylsulfoxide. Reaction volumes were 100 μl per well. […] Proteasome activity was determined under conditions in which substrate hydrolysis increased linearly with time and the change in fluorescence signal was proportional to the concentration of free AMC.
Determination of IC50 Values for HEP and α-Chymotrypsin Inhibitors
Inhibition of the chymotrypsin-like activity of HEP and of bovine α-chymotrypsin was determined by incubating the enzyme with various concentrations of putative inhibitors for 15 minutes at 37° C. (or room temperature for α-chymotrypsin) prior to the addition of substrate. Each experimental condition was evaluated in triplicate, and replicate experiments were performed for the inhibitors described herein.
Molecule `CCCCC(CC)CCC(=O)N[C@@H](CCCNC(=N)N[N+](=O)[O-])C(=O)N[C@@H](CC(C)C)B1O[C@@H]2C[C@@H]3C[C@@H](C3(C)C)[C@]2(C)O1` (mixture of isomers) [D.3.78, (RS)-4-Ethyloctanamide,N-[(1S)-1-[[[(1R)-1-[(3aS,4S,6S,7aR)-hexahydro-3a,5,5-trimethyl-4,6-methano-1,3,2-benzodioxaborol-2-yl]-3-methylbutyl]amino]carbonyl]-4-[[imino(nitroamino)methyl]amino]butyl]] gave an IC50 of less than 0.01 µM.
For the molecule `CCCCC(C)CCC(=O)N[C@@H](CCCNC(=N)N[N+](=O)[O-])C(=O)N[C@@H](CC(C)C)B1O[C@@H]2C[C@@H]3C[C@@H](C3(C)C)[C@]2(C)O1` (mixture of isomers) [D.3.87, (RS)-4-Methyloctanamide,N-[(1S)-1-[[[(1R)-1-[(3aS,4S,6S,7aR)-hexahydro-3a,5,5-trimethyl-4,6-methano-1,3,2-benzodioxaborol-2-yl]-3-methylbutyl]amino]carbonyl]-4-[[imino(nitroamino)methyl]amino]butyl]], the IC50 was less than 0.01 µM.
As for `CC(C)C[C@H](NC(=O)[C@H](CCCNC(=N)N[N+](=O)[O-])NC(=O)CN1CCCCC1)B1O[C@@H]2C[C@@H]3C[C@@H](C3(C)C)[C@]2(C)O1` [D.1.9, 2-Piperidin-1-yl-acetamide,N-[(1S)-1-[[[(1R)-1-[(3aS,4S,6S,7aR)-hexahydro-3a,5,5-trimethyl-4,6-methano-1,3,2-benzodioxaborol-2-yl]-3-methylbutyl]amino]carbonyl]-4-[[imino(nitroamino)methyl]amino]butyl]], the IC50 was less than 0.1 µM.
The molecule `C=CCCCCCCCC(=O)N[C@@H](CCCNC(=N)N[N+](=O)[O-])C(=O)N[C@@H](CC(C)C)B1O[C@@H]2C[C@@H]3C[C@@H](C3(C)C)[C@]2(C)O1` [D.3.68, Dec-9-enamide,N-[(1S)-1-[[[(1R)-1-[(3aS,4S,6S,7aR)-hexahydro-3a,5,5-trimethyl-4,6-methano-1,3,2-benzodioxaborol-2-yl]-3-methylbutyl]amino]carbonyl]-4-[[imino(nitroamino)methyl]amino]butyl]] registered a 50% inhibitory concentration (IC50) of less than 0.01 µM.
Next, `CCCCCCCC/C=C/C(=O)N[C@@H](CCCNC(=N)N[N+](=O)[O-])C(=O)N[C@@H](CC(C)C)B1O[C@@H]2C[C@@H]3C[C@@H](C3(C)C)[C@]2(C)O1` [D.3.69, (E)-Undec-2-enoic acid amide,N-[(1S)-1-[[[(1R)-1-[(3aS,4S,6S,7aR)-hexahydro-3a,5,5-trimethyl-4,6-methano-1,3,2-benzodioxaborol-2-yl]-3-methylbutyl]amino]carbonyl]-4-[[imino(nitroamino)methyl]amino]butyl]]: less than 0.01 µM; `Cc1ccc(CSCCC(=O)N[C@@H](CCCNC(=N)N[N+](=O)[O-])C(=O)N[C@@H](CC(C)C)B2O[C@@H]3C[C@@H]4C[C@@H](C4(C)C)[C@]3(C)O2)cc1` [D.3.76, 3-[(4-methylbenzyl)sulfanyl]propanamide,N-[(1S)-1-[[[(1R)-1-[(3aS,4S,6S,7aR)-hexahydro-3a,5,5-trimethyl-4,6-methano-1,3,2-benzodioxaborol-2-yl]-3-methylbutyl]amino]carbonyl]-4-[[imino(nitroamino)methyl]amino]butyl]]: less than 0.01 µM; `CC(C)=CCC[C@H](C)CC(=O)N[C@@H](CCCNC(=N)N[N+](=O)[O-])C(=O)N[C@@H](CC(C)C)B1O[C@@H]2C[C@@H]3C[C@@H](C3(C)C)[C@]2(C)O1` [D.3.77, (3S)-3,7-Dimethyl-oct-6-enoic acid amide,N-[(1S)-1-[[[(1R)-1-[(3aS,4S,6S,7aR)-hexahydro-3a,5,5-trimethyl-4,6-methano-1,3,2-benzodioxaborol-2-yl]-3-methylbutyl]amino]carbonyl]-4-[[imino(nitroamino)methyl]amino]butyl]]: less than 0.01 µM.
The same measure for `CC(C)C[C@H](NC(=O)[C@H](CCCNC(=N)N[N+](=O)[O-])NC(=O)COc1ccc(Br)cc1)B1O[C@@H]2C[C@@H]3C[C@@H](C3(C)C)[C@]2(C)O1` [D.3.80, 2-(4-Bromophenoxy)-acetamide,N-[(1S)-1-[[[(1R)-1-[(3aS,4S,6S,7aR)-hexahydro-3a,5,5-trimethyl-4,6-methano-1,3,2-benzodioxaborol-2-yl]-3-methylbutyl]amino]carbonyl]-4-[[imino(nitroamino)methyl]amino]butyl]]: less than 0.01 µM.
The molecule `CC(C)C[C@H](NC(=O)[C@H](CCCNC(=N)N[N+](=O)[O-])NC(=O)CC1CC2CCC1C2)B1O[C@@H]2C[C@@H]3C[C@@H](C3(C)C)[C@]2(C)O1` (stereo partly drawn) [D.3.89, 2-(Bicyclo[2.2.1]hept-2-yl)acetamide,N-[(1S)-1-[[[(1R)-1-[(3aS,4S,6S,7aR)-hexahydro-3a,5,5-trimethyl-4,6-methano-1,3,2-benzodioxaborol-2-yl]-3-methylbutyl]amino]carbonyl]-4-[[imino(nitroamino)methyl]amino]butyl]] had an IC50 of less than 0.01 µM.
`CC(C)C[C@H](NC(=O)[C@H](CCCNC(=N)N[N+](=O)[O-])NC(=O)CCCCc1cccs1)B1O[C@@H]2C[C@@H]3C[C@@H](C3(C)C)[C@]2(C)O1` [D.3.115, 5-Thiophen-2-yl-pentanamide,N-[(1S)-1-[[[(1R)-1-[(3aS,4S,6S,7aR)-hexahydro-3a,5,5-trimethyl-4,6-methano-1,3,2-benzodioxaborol-2-yl]-3-methylbutyl]amino]carbonyl]-4-[[imino(nitroamino)methyl]amino]butyl]] displayed an IC50 of less than 0.01 µM.
Turning to `CCCCCCCc1ccc(C(=O)N[C@@H](CCCNC(=N)N[N+](=O)[O-])C(=O)N[C@@H](CC(C)C)B2O[C@@H]3C[C@@H]4C[C@@H](C4(C)C)[C@]3(C)O2)cc1` [D.3.130, 4-Heptylbenzamide,N-[(1S)-1-[[[(1R)-1-[(3aS,4S,6S,7aR)-hexahydro-3a,5,5-trimethyl-4,6-methano-1,3,2-benzodioxaborol-2-yl]-3-methylbutyl]amino]carbonyl]-4-[[imino(nitroamino)methyl]amino]butyl]], the IC50 is less than 0.01 µM.
Turning to `COC(=O)CCCC(=O)N[C@@H](CCCNC(=N)N[N+](=O)[O-])C(=O)N[C@@H](CC(C)C)B(O)O` [E.1.10, Boronic acid, [(1R)-1-[[(2S)-5-[[imino(nitroamino)methyl]amino]-2-[[4-(methoxycarbonyl)butanoyl]amino]-1-oxopentyl]amino]-3-methylbutyl]], the IC50 is less than 0.01 µM.
In the case of `CCCCN1CCC(CCCC(=O)N[C@@H](CCCNC(=N)N[N+](=O)[O-])C(=O)N[C@@H](CC(C)C)B(O)O)CC1` [E.1.14, Boronic acid, [(1R)-1-[[(2S)-5-[[imino(nitroamino)methyl]amino]-2-[(1-oxo-4-(1-butylpiperidin-4-yl)butyl)amino]-1-oxopentyl]amino]-3-methylbutyl]], the IC50 is less than 0.01 µM.
`CCCCCCCCCC(=O)N[C@@H](CCCNC(=N)N[N+](=O)[O-])C(=O)N[C@@H](CC(C)C)B1O[C@H](C2CCCCC2)[C@@H](C2CCCCC2)O1` [F.1, Decanamide, N-[(1S)-1-[[[(1R)-1-[(4R,5R)-4,5-dicyclohexyl-[1,3,2]dioxaborolan-2-yl]-3-methylbutyl]amino]carbonyl]-4-[[imino(nitroamino)methyl]amino]butyl]-] gave an IC50 of less than 0.01 µM.

(Values after patent publication US8546608B2, “Proteasome inhibitors and methods of using the same” (Cephalon, Inc., priority 2003, dated 2013).)
